# From publication PMC8948292, “Combining PEGylated mito-atovaquone with MCT and Krebs cycle redox inhibitors as a potential strategy to abrogate tumor cell proliferation” (Scientific Reports, 2022)
# Read-outs that look alike come from different tables or passages of the source.
# Tests used:
# MiaPaCa-2 cells = test: Cell proliferation (cell confluence), IncuCyte Live-Cell Analysis System; format: cell-based, human; conditions: MiaPaCa-2 cells
# Experimental: (§1) The following cell lines were obtained from the American Type Culture Collection (Manassas, VA), where they were regularly authenticated: MiaPaCa-2 (ATCC Cat# CRL-1420, human pancreatic cancer cells), U87MG (ATCC Cat# HTB-14, human brain cancer cells), A549 (ATCC Cat# CCL-185, lung cancer cells), and HCT-116 (ATCC Cat# CCL-247, colon cancer cells). All cell lines were grown at 37 °C in 5% carbon dioxide. MiaPaCa-2 cells were maintained in Dulbecco's Modified Eagle Medium (Thermo Fisher Scientific, Waltham, MA; Cat# 11965) supplemented with 10% fetal bovine serum. U87MG, A549, and HCT-116 cells were maintained in RPMI 1640 medium (Thermo Fisher Scientific, Cat# 11875), supplemented with 10% fetal bovine serum. All cells were stored in liquid nitrogen and used within 20 passages after thawing.
# (§2) The IncuCyte Live-Cell Analysis System was used to monitor cell proliferation[3],[33],[67]. As shown in previous publications[3],[67], this imaging system is probe-free and noninvasive, and enables continuous monitoring of cell confluence over several days. The increase in the percentage of cell confluence was used as a surrogate marker of cell proliferation. In a 96-well plate, cells were plated at 1,000 cells per well in triplicates and left to adhere overnight. Cells were then treated with Mito-PEG-ATO analogs, and the cell confluency was recorded over several days in the IncuCyte Live-Cell Analysis System.
# [1] = molecular target: mitochondrial complex I (MiaPaCa-2 cells) (Homo sapiens, UniProt O75251+O75306+P03886); test: Complex I-dependent oxygen consumption in permeabilized cells, Seahorse XF-96; format: cell-based; conditions: 24 h, with Mito-PEG5-ATO
# Experimental: Mitochondrial oxygen consumption was measured using the Seahorse XF-96 Extracellular Flux Analyzer (Agilent, North Billerica, MA)[3],[33],[67],[68]. To determine the intact cell mitochondrial function of MiaPaCa-2 cells in response to Mito-PEG-ATO analogs, we used the bioenergetic function assay previously described[2],[3]. […] From these measurements, indices of mitochondrial function were determined as previously described[2],[3]. For mitochondrial complex activities assays, after cells were treated with Mito-PEG-ATO analogs for 24 h, the OCR-based assessment of mitochondrial complex activities was carried out on acutely permeabilized cells in the presence of different mitochondrial substrates, i.e., pyruvate/malate for complex I and duroquinol for complex III[3],[32],[34],[69]. Rotenone, malonate, and antimycin A (Sigma-Aldrich, St. Louis, MO) were used as specific inhibitors of mitochondrial complexes I, II, and III, respectively. Briefly, cells that were intact after treatments were immediately permeabilized using the Seahorse XF Plasma Membrane Permeabilizer (Agilent). The mitochondrial complex I-induced OCR was assayed in mannitol and sucrose buffer[69] containing 10 mM pyruvate and 1.5 mM malate (substrates for complex I) and 10 mM malonate (which inhibits complex II activities). […] The IC50 values were determined as previously reported.
# [2] = molecular target: mitochondrial complex III (MiaPaCa-2 cells) (Homo sapiens, UniProt P00156); test: Complex III-dependent oxygen consumption in permeabilized cells, Seahorse XF-96; format: cell-based; conditions: MiaPaCa-2 cells; with Mito-PEG5-ATO
# Experimental: (§3) Mitochondrial oxygen consumption was measured using the Seahorse XF-96 Extracellular Flux Analyzer (Agilent, North Billerica, MA)[3],[33],[67],[68]. To determine the intact cell mitochondrial function of MiaPaCa-2 cells in response to Mito-PEG-ATO analogs, we used the bioenergetic function assay previously described[2],[3]. […] From these measurements, indices of mitochondrial function were determined as previously described[2],[3]. For mitochondrial complex activities assays, after cells were treated with Mito-PEG-ATO analogs for 24 h, the OCR-based assessment of mitochondrial complex activities was carried out on acutely permeabilized cells in the presence of different mitochondrial substrates, i.e., pyruvate/malate for complex I and duroquinol for complex III[3],[32],[34],[69]. Rotenone, malonate, and antimycin A (Sigma-Aldrich, St. Louis, MO) were used as specific inhibitors of mitochondrial complexes I, II, and III, respectively. Briefly, cells that were intact after treatments were immediately permeabilized using the Seahorse XF Plasma Membrane Permeabilizer (Agilent). The mitochondrial complex I-induced OCR was assayed in mannitol and sucrose buffer[69] containing 10 mM pyruvate and 1.5 mM malate (substrates for complex I) and 10 mM malonate (which inhibits complex II activities). The mitochondrial complex III-driven OCR was assayed in a mannitol and sucrose buffer containing 0.5 mM duroquinol (substrate for complex III) as well as 1 µM rotenone and 10 mM malonate (which inhibit both complex I and II activities). The IC50 values were determined as previously reported.
# A549 cells = test: Cell proliferation (cell confluence), IncuCyte Live-Cell Analysis System; format: cell-based; conditions: Homo sapiens; A549 cells; control ~90% confluence; read-out: IC50, inhibition of A549 cell proliferation
# Experimental: as §1, §2
# (§4) Figure S7. Effects of Mito-PEG-ATO analogs on the proliferation of human lung cancer (A549) cells and human colon cancer (HCT-116) cells. (A) The effects of Mito-PEG5-ATO and ATO on the proliferation of A549 (left) or HCT-116 (right) cells were monitored in the IncuCyte Live-Cell Analysis system. The IncuCyte analyzer provides real-time updates on cell confluence, based on segmentation of high definition-phase contrast images. Representative cell images were shown as a segmentation mask illustrated in brown when control cells reached 90% confluence (vertical solid black line). (B) The IC50 values for A549 (left) or HCT-116 (right) cells were determined at the point at which control cells reached ~90% confluence (vertical solid black line). Relative cell confluence (control is taken as 100%) is plotted against concentration. Dashed lines represent the fitting curves used to determine the IC50 values as indicated. Data shown are the mean±SD.
# HCT-116 cells = test: as above; format: cell-based; conditions: Homo sapiens; HCT-116 cells; control ~90% confluence; read-out: IC50, inhibition of HCT-116 cell proliferation
# Experimental: as §1, §2, §4
# [3] = tested on: mitochondrial respiration (OCR) in intact MiaPaCa-2 cells; test: Intact cell mitochondrial respiration (basal OCR), Seahorse XF-96; format: cell-based, human; conditions: 24 h treatment; for OCR (pmol/min/µg protein): intact MiaPaCa-2 cells, baseline OCR, mean, n=4
# Experimental: as §3
# Sequence of mitochondrial complex I (MiaPaCa-2 cells) (O75306 34-463): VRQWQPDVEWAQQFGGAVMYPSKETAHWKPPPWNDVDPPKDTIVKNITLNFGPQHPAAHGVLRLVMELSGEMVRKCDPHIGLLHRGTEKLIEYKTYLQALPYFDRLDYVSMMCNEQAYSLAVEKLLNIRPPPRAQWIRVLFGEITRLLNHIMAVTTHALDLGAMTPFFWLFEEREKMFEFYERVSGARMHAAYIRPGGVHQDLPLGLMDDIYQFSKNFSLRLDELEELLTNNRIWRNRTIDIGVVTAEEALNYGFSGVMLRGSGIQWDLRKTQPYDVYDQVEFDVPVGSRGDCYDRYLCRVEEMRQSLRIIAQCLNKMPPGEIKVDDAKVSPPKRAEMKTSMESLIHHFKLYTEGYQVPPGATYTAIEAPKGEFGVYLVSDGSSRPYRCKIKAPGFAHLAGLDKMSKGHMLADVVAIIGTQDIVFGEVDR
# Sequence of mitochondrial complex I (MiaPaCa-2 cells) (O75251 39-213): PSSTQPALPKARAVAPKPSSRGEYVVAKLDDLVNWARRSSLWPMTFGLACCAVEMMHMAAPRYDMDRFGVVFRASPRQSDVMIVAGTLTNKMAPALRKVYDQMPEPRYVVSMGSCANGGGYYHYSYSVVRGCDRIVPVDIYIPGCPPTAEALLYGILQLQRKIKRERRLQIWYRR
# Sequence of mitochondrial complex I (MiaPaCa-2 cells) (P03886 whole entry): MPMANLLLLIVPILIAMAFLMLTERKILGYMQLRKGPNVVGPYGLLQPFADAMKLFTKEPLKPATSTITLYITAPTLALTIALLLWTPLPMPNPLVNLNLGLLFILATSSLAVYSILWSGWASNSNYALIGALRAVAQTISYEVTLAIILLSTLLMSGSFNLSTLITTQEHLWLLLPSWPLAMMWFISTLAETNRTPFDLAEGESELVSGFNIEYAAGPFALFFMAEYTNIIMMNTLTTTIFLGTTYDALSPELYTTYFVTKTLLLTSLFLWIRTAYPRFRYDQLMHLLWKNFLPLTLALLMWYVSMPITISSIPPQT
# Sequence of mitochondrial complex III (MiaPaCa-2 cells) (P00156 whole entry): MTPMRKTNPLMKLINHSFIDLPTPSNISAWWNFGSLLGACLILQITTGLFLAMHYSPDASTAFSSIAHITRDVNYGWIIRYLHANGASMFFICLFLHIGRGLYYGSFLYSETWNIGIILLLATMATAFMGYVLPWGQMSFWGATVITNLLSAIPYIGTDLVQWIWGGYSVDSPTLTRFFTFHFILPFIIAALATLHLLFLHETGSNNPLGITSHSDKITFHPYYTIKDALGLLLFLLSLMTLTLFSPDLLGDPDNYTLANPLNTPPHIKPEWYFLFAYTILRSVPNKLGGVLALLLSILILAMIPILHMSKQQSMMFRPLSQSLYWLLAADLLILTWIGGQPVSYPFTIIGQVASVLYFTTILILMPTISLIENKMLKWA
# Sequence of mitochondrial complex III (MiaPaCa-2 cells) (P47985 whole entry partner): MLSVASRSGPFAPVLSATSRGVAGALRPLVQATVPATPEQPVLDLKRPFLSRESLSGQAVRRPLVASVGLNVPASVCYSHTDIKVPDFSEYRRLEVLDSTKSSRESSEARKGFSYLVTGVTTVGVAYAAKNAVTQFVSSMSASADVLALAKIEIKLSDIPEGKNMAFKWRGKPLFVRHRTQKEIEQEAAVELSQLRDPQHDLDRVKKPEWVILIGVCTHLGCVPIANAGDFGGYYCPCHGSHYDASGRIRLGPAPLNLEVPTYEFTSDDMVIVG
"IC50 (MiaPaCa-2 cells; Homo sapiens, MIA PaCa-2, determined when control cells reached ~90% confluence, read-out: IC50, inhibition of cell proliferation)",IC50 (A549 cells),IC50 (HCT-116 cells),"IC50 ([3]; Homo sapiens, MIA PaCa-2, MiaPaCa-2 cells, read-out: IC50, inhibition of basal OCR in intact cells)",SMILES,Inhibition of cell proliferation in combination with Mito-PEG5-ATO (combination index) (MiaPaCa-2 cells; combined with Mito-PEG5-ATO),% changes of IC50 with vs without Mito-PEG5-ATO (MiaPaCa-2 cells; heat map Fig. 7d),"IC50 (MiaPaCa-2 cells; inhibitor alone, control ~90% confluence, read-out: IC50 (cell proliferation) without Mito-PEG5-ATO)",Effect on the decrease in complex I-induced oxygen consumption induced by Mito-PEG5-ATO [1],Effect on the decrease in complex III-induced oxygen consumption induced by Mito-PEG5-ATO [2],OCR (pmol/min/µg protein) ([3]; 1 µM),OCR (pmol/min/µg protein) ([3]; 3 µM),OCR (pmol/min/µg protein) ([3]; 10 µM),OCR (pmol/min/µg protein) ([3]; 15 µM),OCR (pmol/min/µg protein) ([3]; 17.5 µM),OCR (pmol/min/µg protein) ([3]; 20 µM),OCR (pmol/min/µg protein) ([3]; 22.5 µM),OCR (pmol/min/µg protein) ([3]; 25 µM),OCR (pmol/min/µg protein) ([3]; 30 µM),OCR (pmol/min/µg protein) ([3]; 40 µM),OCR (pmol/min/µg protein) ([3]; 50 µM)
,,,,"Cc1cccc(COc2ccccc2CN(CC[C@H](N)C(=O)O)Cc2ccccc2OCc2cccc(C)c2)c1 [V-9302, reference compound]",synergistically inhibited,71.1%,8.6 µM,Neither AZD-3965 nor V-9302 significantly affected,Neither AZD-3965 nor V-9302 significantly affected,,,,,,,,,,,
19 µM,24 µM,20 µM,6.5 µM,"O=C1C(O)=C([C@H]2CC[C@H](c3ccc(Cl)cc3)CC2)C(=O)c2ccccc21 [ATO, atovaquone]",,,,,,11.69 pmol/min/µg protein,11.27 pmol/min/µg protein,4.45 pmol/min/µg protein,3.40 pmol/min/µg protein,2.08 pmol/min/µg protein,1.80 pmol/min/µg protein,2.05 pmol/min/µg protein,2.46 pmol/min/µg protein,1.99 pmol/min/µg protein,2.11 pmol/min/µg protein,0.93 pmol/min/µg protein
